Patent US20220357313A1, “DRUG FINGERPRINTING” (Q-STATE BIOSCIENCES, INC., priority 2021, published 2022)
Counter-ions that a name gives are not always drawn.

Tests used:
[1] = tested on: iPSC-derived excitatory cortical neurons (NGN2) with loss of function knockout (KO); experiment: Optopatch action potential features in knockout disease-model iPSC-derived cortical neurons; format: cell-based, human; conditions: for cell behavior projected onto the phenotype/side effect space: KO cells, 8 concentrations from 0.28 to 600 μM, two replicates; for reversal of functional phenotype of disease-model cells (radar plots of action potential features): KO disease-model cells, features normalized to control cells
Protocol: In this example, iPSC-derived excitatory cortical neurons (NGN2) were grown for 30 days in a culture. The neurons expressed Optopatch proteins as described in Example 1. Two sets of neurons were grown. The first was a wildtype control line. […] The cells were stimulated using blue light as described in Example 1 and their action potentials recorded as voltage traces. Recordings were made of the control cells and disease-model cells when stimulated in the absence of any test compound. Recordings were also made of the disease-model cells when stimulated in the presence of the promiscuous potassium channel blocker 4-AP and the promiscuous sodium channel blocker lamotrigine.
FIG. 19 provides radar plots showing action potential features extracted from the recorded action potential features when stimulated by blue light. The values for the features are normalized to the control cell recordings. […] The differences in the recorded traces, select features of which are provided on the radar plots, show the functional phenotype of the disease-model in red.
FIG. 20 is a diagram illustrating phenotype reversal and “side effects” described by mapping extracted action potential features on the ˜300-dimensional space of recorded parameters, only two of which are shown. Extracted features for the control cell (WT) wells (green) are clustered as are those for the KO cells (red). The vector between these populations represents the phenotype (red). Drug effects (blue) are deconstructed into components along (phenotype reversal) and orthogonal to (side effects) the phenotype vector. An ideal drug would undo the effects of the mutation and move the well from the KO cluster to the control cell cluster.
FIG. 21 is a plot showing many wells projected onto the phenotype/side effect space. WT and KO wells are well separated along the phenotype direction. Application of the two compounds (8 concentrations from 0.28 to 600 μM) from FIG. 25 have increasing effects on KO cell behavior as the concentration increases. […] The connected drug points are in order of increasing concentration, and the two lines are experimental replicates on two consecutive weeks of experiment.

[2] = tested on: KCNQ2 R201C gain-of-function mutant line; experiment: Drug fingerprint phenotype reversal in KCNQ2 R201C line; format: cell-based; conditions: several concentrations
Excerpt: (§1) An autoencoder reduces 518 features extracted from Optopatch measurements through an 8-dimensional bottleneck layer (the “embedding”) before attempting to expand back out and reconstruct the initial inputs. The embeddings are information-dense and (because of the preceding depth) reflect high-order representations. The autoencoder may implement a swish activation function between any layers (e.g., between the 518 and 50 dimensional layers, or between the 50 and 25 dimensional layers. Activation functions extend neural networks behavior to non-linear data. Thus the autoencoder is useful for deriving drug fingerprints with representation learning.
For example, the potassium voltage-gated channel subfamily Q member 2 (KCNQ2) protein and gene are implicated in KCNQ2 encephalopathy, which typically presents with seizures in the first week of life. It is understood that mutation of […] at position 201 in KCNQ2 (R201C) is a gain-of-function mutation that may give rise to KCNQ2 encephalopathy. Using methods of the invention, neurons with and without the R201C mutation may be measured with optopatch and a system such as an autoencoder may create a phenotype. Each phenotype may be plotted in the 8-dimensional space by the autoencoder, which may also plot a drug fingerprint. […]

[3] = tested on: hiPSC-derived motor neurons; experiment: Optopatch excitability recording in hiPSC-derived motor neurons, before and after compound addition; format: cell-based, human; conditions: 1 μM ML213; same field of view recorded before and after addition; blue light stimulus
Excerpt: Human induced pluripotent stem cells (hiPSC) were differentiated into hiPSC-derived motor neurons. The cells expressed an optogenetic proteins from the Optopatch toolkit (optical stimulation plus optical voltage reporting, e.g., CheRiff & QuasAr), which allows simultaneous optical stimulation and recording of neuronal action potentials.
The channelrhodopsin CheRiff enables action potential stimulation with blue light and the voltage-sensitive fluorescent protein QuasAr enables high-speed electrical recordings with red light. A microscope, as disclosed herein, obtained simultaneous voltage recordings from >100 individual neurons over a large (0.5×4 mm) field of view (FOV) with 1 ms temporal resolution and high signal-to-noise ratio (SNR). A digital micromirror device (DMD) in the microscope projected a fully reconfigurable optical pattern to sequentially stimulate individual cells while recording from many post-synaptic partners. […]
In every voltage trace the spikes were detected and the key spike shape and timing parameters were computed. […]
Pixels in the recording that captured fluorescence from the reporters of membrane potential in each neuron co-varied in time following that cell's unique firing pattern. […] Each FOV was recorded twice, before and after addition of potassium channel opener ML213. […]

[4] = tested on: E18 rat hippocampal neurons; experiment: Optopatch spiking behavior of cultured rat hippocampal neurons with compounds; format: cell-based; conditions: for drug-induced changes in neuronal spiking behavior (radar plots): features normalized to control vehicle
Protocol: E18 rat hippocampal neurons were cultured for 14 days and caused to express Optopatch proteins as described in Example 1. The cells were stimulated in the presence of XE-991 (a Kv7.x blocker), ML-213 (a Kv7.x opener), α-Dendrotoxin (a Kv1.x blocker), OXO-M (a muscarinic agonist), 4AP (a promiscuous Kv blocker), Isradipine (a Cav1.x blocker), or a control vehicle.
FIG. 22 provides radar plots showing the drug-induced changes in neuronal spiking behavior along many dimensions, which are merely a subset of the action potential features extracted from recordings of the stimulated cells in the presence of one of the listed compounds. The action potential feature values were normalized to those for the cells simulated in the presence of the control vehicle. As shown in the radar plots, each compound provided a discernable and unique effect to the action potential features of the cell.
E18 rat hippocampal neurons were cultured for 14 days and caused to express Optopatch proteins as described in Example 1. The cells were placed in wells of a 96-well plate. ML-213 at 1 μM was added to alternating columns of the plate and a control vehicle added to the remaining columns. The cells in all wells were stimulated and their action potentials recorded using a microscope as described in Example 1.

neurons [5] = experiment: Nearest neighbor matching of 8-dimensional drug fingerprints across the 400 compound library; format: cell-based; conditions: nearest neighbor query across the 400 compound library
Excerpt: as §1
Over 400 compounds have been assessed in 10-point concentration response curves (CRCs) in neuronal excitability assays.
In general, the highest concentrations of the compounds are associated with the largest deviation from control. The action potential traces of FIG. 48 are shown to the autoencoder of FIG. 45, which derives for each compound an 8-dimensional fingerprint such as the two (two replicates of one compound) shown in FIG. 46. […]
GSK 3787 is a potent and selective peroxisome proliferator-activated receptor δ (PPARδ) antagonist. […] Software may read hundreds (e.g., 512) of features of action potentials fluorescently shown in the movies. […]

neurons [6] = experiment: Drug fingerprint activity detector in the 400 compound screen; format: cell-based; conditions: Retigabine positive CTL wells
Excerpt: To address this challenge, the invention provides a neuronal fingerprinting-based activity detector. In embodiments, the method calculates the fingerprints for each sample, then determines which fingerprints lie inside the “cloud of inertness” defined by the high-n replication of control wells. Samples that give a very low probability of being inert are then labeled as active. This technique is enabled by two assets: 1) a fitted fingerprinting algorithm, such as is described above, with which to find fingerprints and 2) control samples to populate the “cloud of inertness” at the center of the fingerprint space. The determination of the probability of inertness can be made using several computationally inexpensive techniques, including multivariate gaussian distributions and nonparametric kernel density estimation.
FIG. 59 illustrates a drug fingerprint as an activity detector, which could be used for inertness identifier as well. […] Bioactivity of compounds across varying concentrations can be automatically detected in the trained drug space. […] Throughout the 400 compound screen, activity was detected for 99.8% of the Retigabine positive CTL wells and 25.1% of experimental wells (403 compounds across 10 concentrations). For compounds where activity was detected, activity was detected for 49.5% of the wells with the highest third of doses and for 61% of the highest doses. […]

SMILES	cell behavior projected onto the phenotype/side effect space [1]	reversal of functional phenotype of disease-model cells (radar plots of action potential features) [1]	drug-induced changes in neuronal spiking behavior (radar plots) [4]	other results
Nc1ccncc1 [4-AP]	moves cell behavior toward and beyond WT behavior	substantially reversed the phenotype	–	–
O=C1N(c2ccccc2)c2ccccc2C1(Cc1ccncc1)Cc1ccncc1 [Linopirdine hydrochloride]	–	–	–	reversal of KCNQ2 R201C gain-of-function phenotype in 8-dimensional drug fingerprint space [2]: reverses the disease phenotype
Cc1cc(C)c(NC(=O)C2CC3CCC2C3)c(C)c1 (centres unmarked) [ML213]	–	–	drove cellular response, as expected	neuronal excitability [3]: clear reduction in neuronal excitability; average firing rate during the blue light stimulus ramp ([4]; ML-213 at 1 μM versus vehicle, 96-well plate): dramatically reduces firing rate; drug fingerprint similarity to query compound ICA-27243 (neurons [5]): highly similar drug fingerprints
CCOC(=O)Nc1ccc(NCc2ccc(F)cc2)cc1N [Retigabine]	–	–	–	wells in which activity was detected (neurons [6]): 99.8%
O=C1c2ccccc2C(Cc2ccncc2)(Cc2ccncc2)c2ccccc21 [XE-991]	–	–	drove cellular response, as expected	–
Nc1nnc(-c2cccc(Cl)c2Cl)c(N)n1 [lamotrigine]	moves behavior away from both WT and KO	perturbed behavior but did not reverse the phenotype	–	–
